Assay results from patent publication US9040534B2, “[1,2,4]triazolo[4,3-a]pyrazines as P2X7 modulators” (Janssen Pharmaceutica NV, priority 2013, dated 2015).

Tests used:
rat P2X7 = rat P2X7 (Rattus norvegicus (Rat), UniProt Q64663); experiment: Ca2+ flux (FLIPR) in 1321N1 cells expressing recombinant rat P2X7 channel; type: cell-based; settings: 250 μM BzATP
Description: (§1) (A) Ca^2+ Flux: 1321N1 cells expressing the recombinant human, rat or mouse P2X7 channel was cultured in HyQ DME/(HyClone/Dulbecco's Modified Eagle Medium) high glucose supplemented with 10% Fetal Bovine Serum (FBS) and appropriate selection marker. Cells were seeded at a density of 25000 cells/well (96-well clear bottom black walled plates) in 100 μl volume/well. On the day of the experiment, cell plates were washed with assay buffer, containing (in mM): 130 NaCl, 2 KCl, 1 CaCl2, 1 MgCl2, 10 HEPES, 5 glucose; pH 7.40 and 300 mOs. After the wash, cells were loaded with the Calcium-4 dye (Molecular Device) and incubated in the dark for 60 minutes. Test compounds were prepared at 250× the test concentration in neat DMSO. Intermediate 96-well compound plates were prepared by transferring 1.2 μL of the compound into 300 μL of assay buffer. A further 3× dilution occurred when transferring 50 μL/well of the compound plate to 100 μL/well in the cell plate. Cells were incubated with test compounds and dye for 30 minutes. […] The fluorescence change was measured 180 seconds after adding the agonist.

P2X7 [1] = biological target: T1, P2X7 (Homo sapiens (Human), UniProt Q99572); experiment: Ca2+ flux (FLIPR) in 1321N1 cells expressing recombinant human P2X7 channel; type: cell-based; settings: 250 μM BzATP
T1 sequence (Q99572 whole entry): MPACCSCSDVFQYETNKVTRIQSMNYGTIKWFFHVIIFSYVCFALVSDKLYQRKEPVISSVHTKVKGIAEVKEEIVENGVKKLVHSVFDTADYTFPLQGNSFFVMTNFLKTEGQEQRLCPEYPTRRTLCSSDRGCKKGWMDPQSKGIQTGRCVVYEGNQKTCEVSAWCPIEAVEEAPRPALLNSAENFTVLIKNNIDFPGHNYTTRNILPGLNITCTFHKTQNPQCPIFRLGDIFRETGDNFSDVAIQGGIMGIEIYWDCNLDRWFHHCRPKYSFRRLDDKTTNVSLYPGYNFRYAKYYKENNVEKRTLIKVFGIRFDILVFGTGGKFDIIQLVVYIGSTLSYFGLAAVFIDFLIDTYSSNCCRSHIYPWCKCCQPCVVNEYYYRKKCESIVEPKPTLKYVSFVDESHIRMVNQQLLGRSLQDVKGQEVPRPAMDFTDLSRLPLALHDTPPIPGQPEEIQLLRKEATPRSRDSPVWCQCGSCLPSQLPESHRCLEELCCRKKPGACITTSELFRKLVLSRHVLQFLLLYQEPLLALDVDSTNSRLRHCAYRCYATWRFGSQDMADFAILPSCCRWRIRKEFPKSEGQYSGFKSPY
Description: as §1

P2X7 [2] = biological target: T1, P2X7; experiment: Radioligand binding, human P2X7-1321N1 cell membranes, tritiated A-804598 tracer; settings: 1 hour at 4° C.
Description: (B) Radioligand binding: human or rat P2X7-1321N1 cells were collected and frozen @ −80° C. On the day of the experiment, cell membrane preparations were made according to standard published methods. […] The compound can be prepared as described in the literature. […] The assay was terminated by filtration (GF/B filters pre-soaked with 0.3% PEI) and washed with washing buffer (Tris-HCl 50 mM). The IC50 generated in the binding assay was corrected for tracer concentration and affinity of the tracer to derive at the affinity (Ki) of the test compounds.

rat P2X7, sequence (Q64663 whole entry): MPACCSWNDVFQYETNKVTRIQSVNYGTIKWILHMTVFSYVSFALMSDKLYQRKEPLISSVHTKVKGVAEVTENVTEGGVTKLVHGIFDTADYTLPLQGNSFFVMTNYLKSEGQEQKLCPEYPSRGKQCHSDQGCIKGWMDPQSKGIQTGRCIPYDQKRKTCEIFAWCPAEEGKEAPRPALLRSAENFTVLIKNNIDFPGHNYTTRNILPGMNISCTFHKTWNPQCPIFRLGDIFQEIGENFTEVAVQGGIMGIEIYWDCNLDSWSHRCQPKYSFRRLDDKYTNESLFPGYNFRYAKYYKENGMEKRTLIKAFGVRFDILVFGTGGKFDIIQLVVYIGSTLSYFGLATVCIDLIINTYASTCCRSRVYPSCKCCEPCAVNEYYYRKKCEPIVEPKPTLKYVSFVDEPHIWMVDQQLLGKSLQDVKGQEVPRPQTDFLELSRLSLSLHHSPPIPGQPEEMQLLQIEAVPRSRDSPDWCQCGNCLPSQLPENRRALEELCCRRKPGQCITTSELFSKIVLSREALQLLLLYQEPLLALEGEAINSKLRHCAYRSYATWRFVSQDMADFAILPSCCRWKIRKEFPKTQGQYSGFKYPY

| IC50 (rat P2X7) | IC50 (P2X7 [1]) | Ki (P2X7 [2]) | Compound |
| --- | --- | --- | --- |
| > 10000 nM | 2690 nM | – | CC(c1cccc(C(F)(F)F)c1Cl)N1CCn2c(nnc2-c2cnccn2)C1=O (racemic) [Example 4, (±)7-{1-[2-Chloro-3-(trifluoromethyl)phenyl]ethyl}-3-pyrazin-2-yl-6,7-dihydro[1,2,4]triazolo[4,3-a]pyrazin-8(5H)-one] |
| 794 nM | 7.9 nM | 7.9 nM | O=C1c2nnc(-c3ncc(F)cn3)n2CC(C2CC2)N1Cc1cccc(C(F)(F)F)c1Cl (racemic) [Example 70, (±)-7-[2-Chloro-3-(trifluoromethyl)benzyl]-6-cyclopropyl-3-(5-fluoropyrimidin-2-yl)-6,7-dihydro[1,2,4]triazolo[4,3-a]pyrazin-8(5H)-one] |
| 28400 nM | 148 nM | 63.1 nM | O=C1c2nnc(-c3ccc(F)cc3)n2CCN1Cc1cccc(C(F)(F)F)c1Cl [Example 1, 7-[2-Chloro-3-(trifluoromethyl)benzyl]-3-(4-fluorophenyl)-6,7-dihydro[1,2,4]triazolo[4,3-a]pyrazin-8(5H)-one] |
| > 10000 nM | – | – | O=C1c2nnc(-c3cnccn3)n2CCN1Cc1cccc(F)c1F [Example 6, 7-(2,3-Difluorobenzyl)-3-pyrazin-2-yl-6,7-dihydro[1,2,4]triazolo[4,3-a]pyrazin-8(5H)-one] |
| 3150 nM | 96.6 nM | 25.1 nM | C[C@H]1Cn2c(nnc2-c2cn[nH]c2)C(=O)N1Cc1cccc(C(F)(F)F)c1Cl [Example 25, (6S)-7-[2-Chloro-3-(trifluoromethyl)benzyl]-6-methyl-3-(1H-pyrazol-4-yl)-6,7-dihydro[1,2,4]triazolo[4,3-a]pyrazin-8(5H)-one] |
| 135 nM | 1.2 nM | 4 nM | C[C@H]1Cn2c(nnc2-c2nccs2)C(=O)N1Cc1cccc(C(F)(F)F)c1Cl [Example 31, (6S)-7-[2-Chloro-3-(trifluoromethyl)benzyl]-6-methyl-3-(1,3-thiazol-2-yl)-6,7-dihydro[1,2,4]triazolo[4,3-a]pyrazin-8(5H)-one] |
| – | 1 nM | – | C[C@H]1Cn2c(nnc2-c2ncc(F)cn2)C(=O)N1Cc1cccc(C(F)(F)F)c1Cl [Example 34, (6S)-7-[2-Chloro-3-(trifluoromethyl)benzyl]-3-(5-fluoropyrimidin-2-yl)-6-methyl-6,7-dihydro[1,2,4]triazolo[4,3-a]pyrazin-8(5H)-one] |
| 10.6 nM | 0.7 nM | 2 nM | COc1ccnc(-c2nnc3n2C[C@H](C)N(Cc2cccc(C(F)(F)F)c2Cl)C3=O)c1 [Example 35, (6S)-7-[2-Chloro-3-(trifluoromethyl)benzyl]-3-(4-methoxypyridin-2-yl)-6-methyl-6,7-dihydro[1,2,4]triazolo[4,3-a]pyrazin-8(5H)-one] |
| 8670 nM | 22.4 nM | 27.5 nM | Cc1nc(C)c(-c2nnc3n2C[C@H](C)N(Cc2cccc(C(F)(F)F)c2Cl)C3=O)s1 [Example 39, (6S)-7-[2-Chloro-3-(trifluoromethyl)benzyl]-3-(2,4-dimethyl-1,3-thiazol-5-yl)-6-methyl-6,7-dihydro[1,2,4]triazolo[4,3-a]pyrazin-8(5H)-one] |
| > 10000 nM | 17.5 nM | 7.9 nM | C[C@H]1Cn2c(nnc2-c2ncc(Br)cn2)C(=O)N1Cc1cccc(C(F)(F)F)c1Cl [Example 42, (6S)-3-(5-Bromopyrimidin-2-yl)-7-[2-chloro-3-(trifluoromethyl)benzyl]-6-methyl-6,7-dihydro[1,2,4]triazolo[4,3-a]pyrazin-8(5H)-one] |
| 19900 nM | 177 nM | – | C[C@H]1Cn2c(nnc2-c2cccnn2)C(=O)N1Cc1cccc(C(F)(F)F)c1Cl [Example 44, (6S)-7-[2-Chloro-3-(trifluoromethyl)benzyl]-6-methyl-3-pyridazin-3-yl-6,7-dihydro[1,2,4]triazolo[4,3-a]pyrazin-8(5H)-one] |
| 154 nM | 3.3 nM | 12.6 nM | Cc1cccc(-c2nnc3n2C[C@H](C)N(Cc2cccc(C(F)(F)F)c2Cl)C3=O)n1 [Example 46, (6S)-7-[2-Chloro-3-(trifluoromethyl)benzyl]-6-methyl-3-(6-methylpyridin-2-yl)-6,7-dihydro[1,2,4]triazolo[4,3-a]pyrazin-8(5H)-one] |
| > 10000 nM | 371 nM | – | C[C@H]1Cn2c(nnc2C2CC2)C(=O)N1Cc1cccc(C(F)(F)F)c1Cl [Example 50, (6S)-7-[2-Chloro-3-(trifluoromethyl)benzyl]-3-cyclopropyl-6-methyl-6,7-dihydro[1,2,4]triazolo[4,3-a]pyrazin-8(5H)-one] |

Continued, compound first:

| Compound | IC50 (rat P2X7) | IC50 (P2X7 [1]) | Ki (P2X7 [2]) |
| --- | --- | --- | --- |
| O=C1c2nnc(-c3cnccn3)n2CCN1Cc1c(Cl)cccc1Cl [Example 5, 7-(2,6-Dichlorobenzyl)-3-pyrazin-2-yl-6,7-dihydro[1,2,4]triazolo[4,3-a]pyrazin-8(5H)-one] | 2560 nM | 942 nM | – |
| CS(=O)(=O)c1cc(Cl)ccc1CN1CCn2c(nnc2-c2cnccn2)C1=O [Example 7, 7-[4-Chloro-2-(methylsulfonyl)benzyl]-3-pyrazin-2-yl-6,7-dihydro[1,2,4]triazolo[4,3-a]pyrazin-8(5H)-one] | > 10000 nM | 3400 nM | – |
| C[C@H]1Cn2c(nnc2-c2csc(C(F)(F)F)n2)C(=O)N1Cc1cccc(C(F)(F)F)c1Cl [Example 38, (6S)-7-[2-Chloro-3-(trifluoromethyl)benzyl]-6-methyl-3-[2-(trifluoromethyl)-1,3-thiazol-4-yl]-6,7-dihydro[1,2,4]triazolo[4,3-a]pyrazin-8(5H)-one] | 2610 nM | 977 nM | – |
| C[C@H]1Cn2c(nnc2C2CCC2)C(=O)N1Cc1cccc(C(F)(F)F)c1Cl [Example 49, (6S)-7-[2-Chloro-3-(trifluoromethyl)benzyl]-3-cyclobutyl-6-methyl-6,7-dihydro[1,2,4]triazolo[4,3-a]pyrazin-8(5H)-one] | 13200 nM | 386 nM | – |
| C[C@H]1Cn2c(nnc2C2CCCCC2)C(=O)N1Cc1cccc(C(F)(F)F)c1Cl [Example 51, (6S)-7-[2-Chloro-3-(trifluoromethyl)benzyl]-3-cyclohexyl-6-methyl-6,7-dihydro[1,2,4]triazolo[4,3-a]pyrazin-8(5H)-one] | > 10000 nM | 766 nM | – |
| C[C@H]1Cn2c(nnc2C2CCOCC2)C(=O)N1Cc1cccc(C(F)(F)F)c1Cl [Example 53, (6S)-7-[2-Chloro-3-(trifluoromethyl)benzyl]-6-methyl-3-(tetrahydro-2H-pyran-4-yl)-6,7-dihydro[1,2,4]triazolo[4,3-a]pyrazin-8(5H)-one] | > 10000 nM | – | – |
| C[C@H]1Cn2c(nnc2-c2cnccn2)C(=O)N1Cc1ccccc1 [Example 79, (6S)-7-Benzyl-6-methyl-3-pyrazin-2-yl-6,7-dihydro[1,2,4]triazolo[4,3-a]pyrazin-8(5H)-one] | > 10000 nM | – | – |
| C[C@H]1Cn2c(nnc2-c2cnccn2)C(=O)N1Cc1ccccc1Cl [Example 80, (6S)-7-(2-Chlorobenzyl)-6-methyl-3-pyrazin-2-yl-6,7-dihydro[1,2,4]triazolo[4,3-a]pyrazin-8(5H)-one] | 41400 nM | – | – |
| C[C@H]1Cn2c(nnc2-c2cnccn2)C(=O)N1Cc1ccccc1OC(F)(F)F [Example 83, (6S)-6-Methyl-3-pyrazin-2-yl-7-[2-(trifluoromethoxy)benzyl]-6,7-dihydro[1,2,4]triazolo[4,3-a]pyrazin-8(5H)-one] | 11100 nM | 822 nM | – |
| C[C@H]1Cn2c(nnc2-c2cnccn2)C(=O)N1Cc1cc2c(cc1Cl)OCO2 [Example 84, (6S)-7-[(6-Chloro-1,3-benzodioxol-5-yl)methyl]-6-methyl-3-pyrazin-2-yl-6,7-dihydro[1,2,4]triazolo[4,3-a]pyrazin-8(5H)-one] | > 10000 nM | 340 nM | – |
| C[C@H]1Cn2c(nnc2-c2cnccn2)C(=O)N1Cc1c(Cl)cccc1Cl [Example 86, (6S)-7-(2,6-Dichlorobenzyl)-6-methyl-3-pyrazin-2-yl-6,7-dihydro[1,2,4]triazolo[4,3-a]pyrazin-8(5H)-one] | 1370 nM | – | – |
| C[C@H]1Cn2c(nnc2-c2cnccn2)C(=O)N1Cc1ccccc1[N+](=O)[O-] [Example 89, (6S)-6-Methyl-7-(2-nitrobenzyl)-3-pyrazin-2-yl-6,7-dihydro[1,2,4]triazolo[4,3-a]pyrazin-8(5H)-one] | 7280 nM | 26.4 nM | – |
| C[C@H]1Cn2c(nnc2-c2cnccn2)C(=O)N1Cc1cc([N+](=O)[O-])ccc1Cl [Example 90, (6S)-7-(2-Chloro-5-nitrobenzyl)-6-methyl-3-pyrazin-2-yl-6,7-dihydro[1,2,4]triazolo[4,3-a]pyrazin-8(5H)-one] | 20000 nM | 1000 nM | – |
| C[C@H]1Cn2c(nnc2-c2cnccn2)C(=O)N1Cc1cc(N)ccc1Cl [Example 91, (6S)-7-(5-Amino-2-chlorobenzyl)-6-methyl-3-pyrazin-2-yl-6,7-dihydro[1,2,4]triazolo[4,3-a]pyrazin-8(5H)-one] | 18900 nM | 1220 nM | – |
